Test results published in patent US8778874B2, “Glycopeptide antibiotic monomer derivatives” (priority 2004, dated 2014).

Tested on: vancomycin-resistant enterococcus (VRE VanA)
Assay: In vitro assay of antimicrobial activity: MIC by the microdilution method using cation adjusted Mueller-Hinton broth
Assay type: cell-based
Method: In Vitro Assay of Antimicrobial Activity
For several compounds of the invention, minimal inhibitory concentration (MIC) was determined by the microdilution method using cation adjusted Mueller-Hinton broth well known in the art.

[1] = E. faecalis SR7914 (VRE: Van A)

Row | Compound | minimal inhibitory concentration (MIC) [1] | minimal inhibitory concentration (MIC) (E. faecium SR7917 (VRE: Van A))
1 | CNC(CC(C)C)C(=O)NC1C(=O)N[C@@H](CC(N)=O)C(=O)N[C@H]2C(=O)N[C@H]3C(=O)N[C@H](C(=O)N[C@@H](C(=O)O)c4cc(O)cc(O)c4-c4cc3ccc4O)C(O)c3ccc(c(Cl)c3)Oc3cc2cc(c3OC2OC(CO)[C@H](O)C(O)[C@H]2O[C@@H]2CC(C)(NCc3cccc(NC(=O)c4ccc(C)c(OCc5ccccc5)c4[N+](=O)[O-])c3)[C@@H](O)C(C)O2)Oc2ccc(cc2Cl)[C@H]1O (stereo partly drawn) [Compound 10] | 2 | 2
2 | CNC(CC(C)C)C(=O)NC1C(=O)N[C@@H](CC(N)=O)C(=O)N[C@H]2C(=O)N[C@H]3C(=O)N[C@H](C(=O)N[C@@H](C(=O)O)c4cc(O)cc(O)c4-c4cc3ccc4O)C(O)c3ccc(c(Cl)c3)Oc3cc2cc(c3OC2OC(CO)[C@H](O)C(O)[C@H]2O[C@@H]2CC(C)(NCc3ccc(OCCCNC(=O)c4ccc(C)c(OCc5ccccc5)c4[N+](=O)[O-])cc3)[C@@H](O)C(C)O2)Oc2ccc(cc2Cl)[C@H]1O (stereo partly drawn) [Compound 16] | 4 | 4
3 | CN[C@H](CC(C)C)C(=O)N[C@H]1C(=O)N[C@@H](CC(N)=O)C(=O)N[C@H]2C(=O)N[C@H]3C(=O)N[C@H](C(=O)N[C@H](C(=O)O)c4cc(O)cc(O)c4-c4cc3ccc4O)[C@H](O)c3ccc(c(Cl)c3)Oc3cc2cc(c3O[C@@H]2O[C@H](CO)[C@@H](O)[C@H](O)[C@H]2O[C@H]2C[C@](C)(N)[C@H](O)[C@H](C)O2)Oc2ccc(cc2Cl)[C@H]1O [VCM, vancomycin, reference compound] | >64 | >64
